Where two headings read alike, the source gives them in different places.

From patent US20250230171A1 (MOMA Therapeutics, Inc., priority 2023, published 2025) come the findings set out here.

One assay concerns DLD1 BRCA2 (−/−) cells. As to the kind of experiment: 7-day cell viability assay (CellTiter-Glo), DLD1 BRCA2 (−/−). In kind it is cell-based, human. The settings on record: Homo sapiens, DLD-1, 168 h, n=2, read-out: Viability IC50 (uM) DLD1 BRCA2 null. The essentials: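 7-day growth assay in DLD1 cells with or without BRCA2; seeding densities chosen to keep log-linear growth. Compound: 10 uM top, 3-fold, 9 points. Endpoint: CTG ATP luminescence at RT.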

The subject of another assay is DLD1 WT cells. As to the kind of experiment: 7-day cell viability assay (CellTiter-Glo), DLD1 parental (WT). The settings on record: Homo sapiens, DLD-1, 168 h, n=2. In kind it is cell-based, human.
Assay [1] has as its target biotinylated Avi-POLθ[2-894] (Homo sapiens (Human), UniProt O75417). As to the kind of experiment: POLθ ATPase assay (ADP-Glo). Particulars: n=2, read-out: Biochemical ATPase ADPGlo IC50.

Chain of biotinylated Avi-POLθ[2-894] (O75417 2-894): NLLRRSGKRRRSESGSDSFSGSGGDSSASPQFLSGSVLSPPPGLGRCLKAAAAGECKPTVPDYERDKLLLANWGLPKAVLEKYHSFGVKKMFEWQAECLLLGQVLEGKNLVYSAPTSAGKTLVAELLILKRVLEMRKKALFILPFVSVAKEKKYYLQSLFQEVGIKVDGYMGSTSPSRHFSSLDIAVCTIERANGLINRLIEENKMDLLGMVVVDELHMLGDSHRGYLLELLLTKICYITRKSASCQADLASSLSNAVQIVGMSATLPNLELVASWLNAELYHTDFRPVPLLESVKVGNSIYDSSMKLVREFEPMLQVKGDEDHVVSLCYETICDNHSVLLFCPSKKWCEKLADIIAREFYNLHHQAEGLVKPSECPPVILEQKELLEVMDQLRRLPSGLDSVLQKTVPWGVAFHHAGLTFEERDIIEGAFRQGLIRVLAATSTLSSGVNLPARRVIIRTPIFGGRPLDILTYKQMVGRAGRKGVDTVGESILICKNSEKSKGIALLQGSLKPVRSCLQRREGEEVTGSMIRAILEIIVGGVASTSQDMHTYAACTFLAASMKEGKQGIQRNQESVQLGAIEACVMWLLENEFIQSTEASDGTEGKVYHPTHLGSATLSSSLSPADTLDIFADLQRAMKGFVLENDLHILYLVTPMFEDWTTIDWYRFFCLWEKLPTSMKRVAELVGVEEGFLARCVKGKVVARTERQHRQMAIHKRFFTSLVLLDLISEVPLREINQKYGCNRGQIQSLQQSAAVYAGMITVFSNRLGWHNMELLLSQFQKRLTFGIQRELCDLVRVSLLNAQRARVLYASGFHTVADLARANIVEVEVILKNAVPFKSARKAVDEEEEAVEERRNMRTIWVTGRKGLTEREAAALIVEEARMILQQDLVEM

With `COc1cnc(Cl)cc1-c1cc(C)ncc1C(=O)Nc1nc2c(s1)CN(C(=O)c1cc(C)nn1C(F)F)C2`, the half-inhibitory concentration (IC50) with DLD1 BRCA2 (−/−) cells (7-day viability) was 0.1 to 0.25 µM; with DLD1 WT cells (7-day viability), at least 10 µM; in assay [1] it was 1 to 15 nM.
On the same counts, the results for `COc1cnc(Cl)cc1-c1cc(C)ncc1C(=O)Nc1nc2c(s1)CC(Nc1ccccc1)CC2` (stereo not drawn) are 0.1 to 0.25 µM, at least 10 µM and 1 to 15 nM.
The corresponding values for `COc1cnc(Cl)cc1-c1cc(C)ncc1C(=O)Nc1nc2c(s1)CN(C(=O)[C@@H]1CCCOC1)C2` are 0.5 to 2 µM, at least 10 µM and 1 to 15 nM.
For the compound `COc1cnc(Cl)cc1-c1cc(C)ncc1C(=O)Nc1nc2c(s1)CN(C(=O)c1ccncc1)C2`, the concentration for half-maximal inhibition (IC50) was 0.25 to 0.5 µM with DLD1 BRCA2 (−/−) cells (7-day viability), at least 10 µM in the assay on DLD1 WT cells (7-day viability) and 1 to 15 nM in assay [1].
`COc1cnc(Cl)cc1-c1cc(C)ncc1C(=O)Nc1nc2c(s1)CN(C(=O)c1cn(C)nc1OC)C2`: the half-inhibitory concentration (IC50) with DLD1 BRCA2 (−/−) cells (7-day viability) was 0.25 to 0.5 µM; in the assay on DLD1 WT cells (7-day viability), at least 10 µM; in assay [1], 1 to 15 nM.
The corresponding values for `COc1ccc(C#N)cc1-c1cc(C)ncc1C(=O)Nc1nc2c(s1)CN(S(=O)(=O)NC1CC1)C2` are at least 2 µM, at least 10 µM and 1 to 15 nM.
The corresponding values for `COc1ccc(C#N)cc1-c1cc(C)ncc1C(=O)Nc1nc2c(s1)CN(C(=O)C1CC(CC(F)F)C1)C2` (stereo not drawn) are 0.5 to 2 µM, at least 10 µM and 1 to 15 nM.
The corresponding values for `COc1ccc(C#N)cc1-c1cc(C)ncc1C(=O)Nc1nc2c(s1)CN(C(=O)[C@H]1C[C@@H](C#N)C1)C2` are at least 2 µM, at least 10 µM and 1 to 15 nM.
As for `COc1ccc(C#N)cc1-c1cc(C)ncc1C(=O)Nc1nc2c(s1)CN(C(=O)C1CCCC1)C2`, the IC50 with DLD1 BRCA2 (−/−) cells (7-day viability) was 0.5 to 2 µM; with DLD1 WT cells (7-day viability), at least 10 µM; in assay [1], 1 to 15 nM.
The corresponding values for `COc1ccc(C#N)cc1-c1cc(C)ncc1C(=O)Nc1nc2c(s1)CN(C(=O)[C@H]1C[C@@H](OC)C1)C2` are 0.5 to 2 µM, at least 10 µM and 1 to 15 nM.
In the case of `COc1ccc(C#N)cc1-c1cc(C)ncc1C(=O)Nc1nc2c(s1)CN(S(=O)(=O)N1CCOCC1)C2`, the results for the IC50 (in the assay on DLD1 BRCA2 (−/−) cells (7-day viability); in the assay on DLD1 WT cells (7-day viability); in assay [1]) were at least 2 µM, at least 10 µM and 1 to 15 nM, respectively.
In the case of `COc1ccc(C#N)cc1-c1cc(C)ncc1C(=O)Nc1nc2c(s1)CN(S(=O)(=O)N1CCCC1)C2`, the half-inhibitory concentration (IC50) was 0.5 to 2 µM in the assay on DLD1 BRCA2 (−/−) cells (7-day viability), at least 10 µM in the assay on DLD1 WT cells (7-day viability) and 1 to 15 nM in assay [1].
The corresponding values for `COc1ccc(C#N)cc1-c1cc(C)ncc1C(=O)Nc1nc2c(s1)CN(C(=O)c1ccncc1)C2` are at least 2 µM, at least 10 µM and 1 to 15 nM.
As to `COc1ccc(C#N)cc1-c1cc(C)ncc1C(=O)Nc1nc2c(s1)CN(S(=O)(=O)N1CCCCC1)C2`, the IC50 with DLD1 BRCA2 (−/−) cells (7-day viability) was 0.5 to 2 µM; in the assay with DLD1 WT cells (7-day viability), at least 10 µM; in assay [1] it was 1 to 15 nM.
On the same counts, the results for `COc1ccc(C#N)cc1-c1cc(C)ncc1C(=O)Nc1nc2c(s1)CN(C(=O)c1ccncc1C)C2` are at least 2 µM, at least 10 µM and 1 to 15 nM.
Take `COc1ccc(C#N)cc1-c1cc(C)ncc1C(=O)Nc1nc2c(s1)CN(C(=O)c1ccnc(C)c1)C2`: the IC50 was at least 2 µM in the assay on DLD1 BRCA2 (−/−) cells (7-day viability), at least 10 µM in the assay on DLD1 WT cells (7-day viability) and 1 to 15 nM in assay [1].
Consider `COc1ccc(C#N)cc1-c1cc(C)ncc1C(=O)Nc1nc2c(s1)CN(S(=O)(=O)NCC(F)(F)F)C2`, for which the half-maximal inhibitory concentration (IC50) with DLD1 BRCA2 (−/−) cells (7-day viability) was at least 2 µM; in the assay with DLD1 WT cells (7-day viability), at least 10 µM; in assay [1], 1 to 15 nM.
On the same counts, the results for `COc1ccc(C#N)cc1-c1cc(C)ncc1C(=O)Nc1nc2c(s1)CN(C(=O)C1CCCCC1)C2` are 0.5 to 2 µM, at least 10 µM and 1 to 15 nM.
The corresponding values for `COc1ccc(C#N)cc1-c1cc(C)ncc1C(=O)Nc1nc2c(s1)CN(S(=O)(=O)C1CC1)C2` are at least 2 µM, at least 10 µM and 15 to 50 nM.
Turning to `COc1ccc(C#N)cc1-c1cc(C)ncc1C(=O)Nc1nc2c(s1)CN(S(=O)(=O)NC(C)(C)C)C2`, the IC50 is at least 2 µM in the assay on DLD1 BRCA2 (−/−) cells (7-day viability), at least 10 µM in the assay on DLD1 WT cells (7-day viability) and 1 to 15 nM in assay [1].
On the same counts, the results for `COc1ccc(C#N)cc1-c1cc(C)ncc1C(=O)Nc1nc2c(s1)CN(C(=O)c1ncccc1C)C2` are 0.5 to 2 µM, at least 10 µM and 1 to 15 nM.
On the same counts, the results for `COc1ccc(C#N)cc1-c1cc(C)ncc1C(=O)Nc1nc2c(s1)CN(C(=O)c1cc(C)ccn1)C2` are 0.5 to 2 µM, at least 10 µM and 1 to 15 nM.
For the compound `COc1ccc(C#N)cc1-c1cc(C)ncc1C(=O)Nc1nc2c(s1)CN(S(=O)(=O)NCC(C)C)C2`, the IC50 is 0.5 to 2 µM in the assay with DLD1 BRCA2 (−/−) cells (7-day viability), at least 10 µM in the assay on DLD1 WT cells (7-day viability) and 1 to 15 nM in assay [1].
`COc1ccc(C#N)cc1-c1cc(C)ncc1C(=O)Nc1nc2c(s1)CC(Nc1ccccc1)CC2` (stereo not drawn): the IC50 was 0.1 to 0.25 µM with DLD1 BRCA2 (−/−) cells (7-day viability), at least 10 µM in the assay with DLD1 WT cells (7-day viability) and 1 to 15 nM in assay [1].
As for `COc1ccc(C#N)cc1-c1cc(C)ncc1C(=O)Nc1nc2c(s1)CN(C(=O)c1cccc(C)n1)C2`, the figures for the IC50 (in the assay on DLD1 BRCA2 (−/−) cells (7-day viability); in the assay with DLD1 WT cells (7-day viability); in assay [1]) were 0.5 to 2 µM, at least 10 µM and 1 to 15 nM, respectively.
Turning to `COc1ccccc1-c1cc(C)ncc1C(=O)Nc1nc2c(s1)CN(C(=O)C1CC1)C2`, the figures for the IC50 (in the assay with DLD1 BRCA2 (−/−) cells (7-day viability); in the assay with DLD1 WT cells (7-day viability); in assay [1]) were at least 2 µM, at least 10 µM and 150 to 900 nM, respectively.
`COc1ccccc1-c1cc(C)ncc1C(=O)Nc1nc2c(s1)CN(C(=O)C1CC1)CC2`: the IC50 in the assay with DLD1 BRCA2 (−/−) cells (7-day viability) was at least 2 µM; in the assay with DLD1 WT cells (7-day viability) it was 0.5 to 2 µM; in assay [1] it was at least 900 nM.
The corresponding values for `COc1ccccc1-c1cc(C)ncc1C(=O)Nc1nc2c(s1)CN(c1ccc(Cl)cc1)CC2` are at least 2 µM, at least 10 µM and at least 900 nM.
Regarding `COc1ccccc1-c1cc(C)ncc1C(=O)Nc1nc2c(s1)CN(CC1CCCCC1)CC2`, the IC50 with DLD1 BRCA2 (−/−) cells (7-day viability) was at least 2 µM; with DLD1 WT cells (7-day viability), at least 10 µM; in assay [1], at least 900 nM.
`COc1ccccc1-c1cc(C)ncc1C(=O)Nc1nc2c(s1)CN(C(=O)c1ccccc1)CC2`: the IC50 was 0.5 to 2 µM with DLD1 BRCA2 (−/−) cells (7-day viability), 0.5 to 2 µM in the assay on DLD1 WT cells (7-day viability) and at least 900 nM in assay [1].
In the case of `COc1ccccc1-c1cc(C)ncc1C(=O)Nc1nc2c(s1)CN(Cc1ccccc1)CC2`, the half-inhibitory concentration (IC50) in the assay on DLD1 BRCA2 (−/−) cells (7-day viability) is 0.5 to 2 µM; in the assay on DLD1 WT cells (7-day viability), 0.5 to 2 µM; in assay [1], at least 900 nM.
`COc1ccccc1-c1cc(C)ncc1C(=O)Nc1nc2c(s1)C(=O)NCC2`: the IC50 in the assay with DLD1 BRCA2 (−/−) cells (7-day viability) was at least 2 µM; in the assay with DLD1 WT cells (7-day viability), at least 10 µM; in assay [1] it was at least 900 nM.
For the compound `COc1ccccc1-c1cc(C)ncc1C(=O)Nc1nc2c(s1)CNCC2`, the concentration for half-maximal inhibition (IC50) in the assay on DLD1 BRCA2 (−/−) cells (7-day viability) is at least 2 µM; with DLD1 WT cells (7-day viability), at least 10 µM; in assay [1], at least 900 nM.
For `COc1cnc(Cl)cc1-c1cc(C)ncc1C(=O)Nc1nc2c(s1)CN(C(=O)c1ccc(F)c(C(F)F)c1)C2`, the 50% inhibitory concentration (IC50) with DLD1 BRCA2 (−/−) cells (7-day CellTiter-Glo) fell in the range of 0.001 to 0.1 µM; in the assay with DLD1 WT cells (7-day CellTiter-Glo), 5 to 10 µM; in assay [1] (POLθ ATPase, ADP-Glo), 1 to 15 nM.
Turning to `COc1cnc(Cl)cc1-c1cc(C)ncc1C(=O)Nc1nc2c(s1)CN(C(=O)c1cnn(C)c1Cl)C2`, the IC50 is 0.001 to 0.1 µM in the assay on DLD1 BRCA2 (−/−) cells (7-day viability), at least 10 µM with DLD1 WT cells (7-day viability) and 1 to 15 nM in assay [1].
